The values that follow come from paper PMC8659148, “Drug Repurposing for Influenza Virus Polymerase Acidic (PA) Endonuclease Inhibitor” (Molecules, 2021).

For this assay, the target named is T1, PAN endonuclease domain from influenza A type virus (H1N1) (PAN, residues 1-197) (Influenza A virus, UniProt P03433).
T1 construct: influenza A type virus (H1N1) (PAN, residues 1-197) was cloned; His tag (inferred from pET-28a vector and IMAC purification); made in house; host or cells: E. coli BL21 (DE3)
Type of assay: biochemical. Conditions: ssDNA, 1 h, 37 °C; conivaptan 0–[…], dutasteride 0–1000 μM, rifaximin 0–1000 μM, lurasidone 0–3000 μM (Figure S1).

In the case of `C[C@]12C=CC(=O)N[C@@H]1CC[C@@H]1[C@@H]2CC[C@]2(C)[C@@H](C(=O)Nc3cc(C(F)(F)F)ccc3C(F)(F)F)CC[C@@H]12` [dutasteride], the “inhibition of the endonuclease activity of PAN (in words)” value (“inhibition” below) was “no inhibition”. As for `CS(=O)(=O)c1cccc(C[C@H](NC(=O)c2c(Cl)cc3c(c2Cl)CCN(C(=O)c2ccc4ccoc4c2)C3)C(=O)O)c1` [lifitegrast], the “inhibition” value was “inhibitory effect”. Take `O=C1[C@@H]2[C@H]3CC[C@H](C3)[C@@H]2C(=O)N1C[C@@H]1CCCC[C@H]1CN1CCN(c2nsc3ccccc23)CC1` [lurasidone]: the “inhibition” value is listed as “no inhibition”. Turning to `CO[C@H]1/C=C/O[C@@]2(C)Oc3c(C)c(O)c4c(O)c(c5c(nc6cc(C)ccn65)c4c3C2=O)NC(=O)/C(C)=C\C=C\[C@H](C)[C@H](O)[C@@H](C)[C@@H](O)[C@@H](C)[C@H](OC(C)=O)[C@@H]1C` [rifaximin], the “inhibition” value was “no inhibition”.
